# Measured values from BindingDB's records for PubMed 35202969 (Maharishi Markandeshwar (Deemed To Be University), 2022).
# Biological target: CYP3A4 (Homo sapiens, UniProt P08684)
# Test: Inhibition of CYP3A4 in human liver microsomes using midazolam as substrate
# Settings: probe midazolam
# Sequence of CYP3A4 (P08684 whole entry): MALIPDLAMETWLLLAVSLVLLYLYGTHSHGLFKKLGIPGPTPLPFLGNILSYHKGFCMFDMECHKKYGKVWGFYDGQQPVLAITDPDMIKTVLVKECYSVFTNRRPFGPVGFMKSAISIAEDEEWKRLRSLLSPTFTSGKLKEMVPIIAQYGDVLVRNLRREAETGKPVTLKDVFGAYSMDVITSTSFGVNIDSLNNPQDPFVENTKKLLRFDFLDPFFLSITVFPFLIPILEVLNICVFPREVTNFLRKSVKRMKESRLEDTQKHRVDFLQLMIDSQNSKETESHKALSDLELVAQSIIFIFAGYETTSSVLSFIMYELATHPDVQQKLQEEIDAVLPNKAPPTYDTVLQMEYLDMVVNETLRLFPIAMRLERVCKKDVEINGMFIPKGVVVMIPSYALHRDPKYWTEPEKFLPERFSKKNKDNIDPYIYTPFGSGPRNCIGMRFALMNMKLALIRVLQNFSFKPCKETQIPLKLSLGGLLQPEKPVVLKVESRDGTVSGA
smiles,measurement,value
COc1c(N2CC[C@@H](C3(N)CC3)C2)ccc2c(=O)c(C(=O)O)cn([C@@H]3C[C@@H]3F)c12 [DX-619],Ki,67.9 µM
